Experimental data: patent US8158621B2, “Methods of treating or preventing autoimmune diseases with 2,4-pyrimidinediamine compounds” (Rigel Pharmaceuticals, Inc., priority 2002, dated 2012)
pIC50: −log10 of the molar value. Where “and” joins values, the source holds several entries; their conditions need not be identical. Identical values can stand only once. Marks after values point to notes of the source that are not given here.

What was measured:
[1] = tested on: differentiated human macrophages; assay: Macrophage activation, IgG stimulation: TNF; assay type: cell-based; conditions: stimulus (IgG or LPS) not given; read-out: Monocytes/Macrophage TNF IC50
Protocol: Purity was assessed by measuring the percentage of CD14+ cells by flow cytometry.
A negative control consisting of the F(ab′)2 fragment was also coated to assess background stimulation. Unbound antibody was washed away 2× with 200 ul PBS. […] The cells were incubated for 16 hr in a 37° C. incubator, and supernatants were collected for Luminex analysis for IL-6 and TNFα, essentially as described for the primary T-cells, above.

Syk kinase [2] = assay: Phosphorylation of proteins downstream of Syk kinase in IgE receptor-activated BMMC cells; assay type: cell-based, mouse; conditions: activated mast cells (BMMC)
Protocol: For the assay, BMMC cells were incubated in the presence of varying concentrations of test compound (0.08 μM, 0.4 μM, 2 μM and 10 μM) for 1 hr at 37° C. The cells were then stimulated with anti-IgE antibody as previously described. After 10 min, the cells were lysed and the cellular proteins separated by electrophoresis (SDS PAGE).
(§1) Following electrophoresis, the phosphorylation of the proteins indicated in FIGS. 7, 10 and 11A-D were assessed by immunoblot. Antibodies were purchased from Cell Signaling Technology, Beverley, Mass.

[3] = Pilot dose finding studies (oral); assay type: in vivo
[4] = in vitro chromosomal aberration assay
Syk kinase [5] = assay: Phosphorylation of proteins in the FcεRI cascade in activated CHMC cells; assay type: cell-based, human; conditions: activated CHMC cells, varying concentrations (FIG. 10)
Protocol: as §1

[6] = tested on: Salmonella-Escherichia coli tester strains; conditions: for Ames test, tester strain TA1537: with and without metabolic activation
[7] = Non-GLP pilot oral toxicity studies in the mouse
Protocol: Several non-GLP pilot toxicity studies have been conducted in rodents. […] In a 14-day oral toxicity study in the mouse was conducted with doses of 100, 300 and 1000 mg/kg.

[8] = Mouse collagen antibody-induced arthritis (CAIA); assay type: in vivo, Balb/c mice
Protocol: Arthrogen-CIA® Arthritis-inducing Monoclonal Antibody Cocktail (Chemicon International Inc.) is administered intravenously to Balb/c mice (2mg/mouse) on Day 0. Forty-eight hours later, 100 μl of LPS (25 μg) is injected intraperitoneally. On Day 4, toes may appear swollen. By Day 5, one or two paws (particular the hind legs) begin to appear red and swollen. On Day 6, and thereafter, red and swollen paws will remain for at least 1-2 weeks. During the study, the clinical signs of inflammation are scored to evaluate the intensity of edema in the paws. The severity of arthritis is recorded as the sum score of both hind paws for each animal (possible maximum score of 8). The degree of inflammation with involved paws is evaluated by measurement of diameter of the paws. Body weight changes are monitored.
Animals are treated at the time of induction of arthritis, beginning on Day 0. Test compounds and control compounds are administered once a day (q.d.) or twice a day (b.i.d.), via per os (PO), depending on previously established PK profiles.
At the end of the study (1-2 weeks after induction of arthritis), mice are euthanized and the paws are transected at the distal tibia using a guillotine and weighed. The mean±standard error of the mean (SEM) for each group is determined each day from individual animal clinical scores, and hind paw weights for each experimental group are calculated and recorded at study termination. Histopathological evaluation of paws are obtained.

[9] = Mouse experimental autoimmune encephalomyelitis (EAE); assay type: in vivo; conditions: for mice relapsed: from day of immunization
Protocol: In the SJL murine model of EAE, each mouse is sensitized with PLP/CFA. […] In a treatment protocol, at onset of disease, animals are separated to achieve groups with a similar mean clinical score at onset and administered vehicle or various dose frequencies of test articles via oral gavage. In both protocols, clinical scores are monitored daily, and body weights are measured twice weekly.

[10] = 14-day repeat-dose intranasal toxicity study in New Zealand White rabbits; assay type: in vivo; conditions: 14-day intranasal
Protocol: A 14-day repeat-dose intranasal toxicity study in New Zealand White rabbits was performed at doses of 1.7, 3.4 or 5.0 mg/kg/day. In life parameters included: clinical observations, body weights, food consumption, ophthalmology, hematology, clinical chemistry, gross necropsy, organ weights, toxicokinetic assessments and histopathology (including the nasal cavity).

[11] = tested on: basophil cells (human peripheral blood); assay: Basophil dustmite activation: histamine release assay; assay type: cell-based; conditions: basophils, dust mite activation
Protocol: The basophil activation assay was carried out using whole human peripheral blood from donors allergic to dust mites with the majority of the red blood cells removed by dextran sedimentation. Human peripheral blood was mixed 1:1 with 3% dextran T500 and RBCs were allowed to settle for 20-25min. The upper fraction was diluted with 3 volumes of D-PBS and cells were spun down for 10 min at 1500 rpm, RT. Supernatant was aspirated and cells were washed in an equal volume MT-buffer. Finally, cells were resuspended in MT-buffer containing 0.5% DMSO in the original blood volume. 80 uL cells were mixed with 20 uL compound in the presence of 0.5% DMSO, in triplicate, in a V-bottom 96-well tissue culture plate. A dose range of 8 compound concentrations was tested resulting in a 10-point dose response curve including maximum (stimulated) and minimum (unstimulated) response. […] The cells were stimulated for 30 minutes at 37° C., 5% CO2. The plate was spun for 10 min at 1500 rpm at room temperature and 80 uL the supernatant was harvested for histamine content analysis using the histamine ELISA kit supplied by Immunotech. The ELISA was performed according to supplier's instructions.

[12] = 100 mg/kg 1x/day starting on day of immunization
[13] = 100 mg/kg 2x/day starting on day of immunization
[14] = 200 mg/kg 2x/day starting on day of onset

OCCCn1ncc2cc(Nc3ncc(F)c(Nc4ccc(Cl)c(Cl)c4)n3)ccc21 [Compound R935391]
pIC50 [1]: 5.94

CNC(=O)COc1cccc(Nc2ncc(F)c(Nc3ccc4c(c3)NCCO4)n2)c1 [Compound R921219]
phosphorylation of Syk kinase substrates and proteins downstream of Syk kinase (Syk kinase [2]): inhibit phosporylation of various proteins downstream of Syk kinase
doses not tolerated ([3]; multiple (7-day) doses): ≥ 200 mg/kg/day
NOEL (no observed effect level) ([3]; single oral dose): 600 mg/kg
clastogenic potential, in vitro chromosomal aberration assay [4]: not found to possess elastogenic potential
phosphorylation of proteins downstream of Syk kinase, but not LYN kinase, in the FcεRI signal transduction cascade (Syk kinase [5]): inhibit phosphorylation of proteins downstream of Syk kinase, but not LYN kinase
Ames test, other tester strains [6]: not found to adversely affect any of the other 4 tester strains
Ames test, tester strain TA1537 [6]: positive

Nc1cccc(Nc2ncc(F)c(Nc3cccc(N)c3)n2)c1 [Compound R921302]
Ames test, other tester strains [6]: not found to adversely affect any of the other 3 tester strains
Ames test, tester strain TA98 ([6]; with S9): positive
Ames test, tester strain TA1537 [6]: positive
NOAEL (no observed adverse effect level) ([7]; 14-day oral toxicity study): 100 mg/kg
tolerability, 100 mg/kg q.d. or b.i.d. ([7]; in vivo, po, 100 mg/kg): well tolerated
findings at 300 mg/kg ([7]; in vivo, po, 300 mg/kg): histopathological changes in the vulva
tolerability, 300 mg/kg q.d. or b.i.d. ([7]; in vivo, po, 300 mg/kg): not tolerated
tolerability, 1000 mg/kg ([7]; in vivo, po, 1000 mg/kg): not tolerated
tolerability, oral 1000 mg/kg ([7]; in vivo, po, 1000 mg/kg): tolerated
Group Average Histopathological Score (0-15), average total score ± SD ([8]; 100 mg/kg, twice daily): 5.1 ± 1.9
reduction of paw weight compared with vehicle control group ([8]; end of study): 99.9%
histopathological evaluation of the resected paws ([8]; mouse, in vivo): lesions of lesser severity
Incidence [9, 12]: 10/10
Mortality [9, 12]: 0/10
Onset [9, 12]: 12.3 ± 0.7
Peak (mean clinical score) [9, 12]: 4.3+1.3 and 4.3 ± 1.3
Incidence [9, 13]: 10/10
Mortality [9, 13]: 3/10^a
Onset [9, 13]: 13.0 ± 1.2^b
Peak (mean clinical score) [9, 13]: 4.3+1.4 and 4.3 ± 1.4
mice relapsed ([9]; 100 mg/kg twice daily group): None
mice relapsed ([9]; 100 mg/kg/day group): 3/8
Incidence [9, 14]: 12/12
Mean score at treatment [9, 14]: 3.4 ± 1.6
Mortality [9, 14]: 1/12
Peak [9, 14]: 4.3 ± 0.7
Relapses [9, 14]: 2/12

Oc1cccc(Nc2ncc(F)c(Nc3cccc(O)c3)n2)c1 [Compound R921218]
phosphorylation of Syk kinase substrates and proteins downstream of Syk kinase (Syk kinase [2]): inhibit phosporylation of various proteins downstream of Syk kinase
NOAEL (no observed adverse effect level) [10]: 5.0 mg/kg/day
phosphorylation of proteins downstream of Syk kinase, but not LYN kinase, in the FcεRI signal transduction cascade (Syk kinase [5]): inhibit phosphorylation of proteins downstream of Syk kinase, but not LYN kinase
pIC50 [11]: 6.52

CC1(C)Oc2ccc(Nc3nc(Nc4ccc5cn[nH]c5c4)ncc3F)cc2NC1=O [Compound R940363]
pIC50 [1]: 6.88
